These results are taken from US10317393B2, “Alkynyl sugar analogs for labeling and visualization of glycoconjugates in cells” (Academia Sinica, priority 2007, dated 2019).

One assay concerns Hep3B cells. As to the kind of experiment: Confocal microscopy of fluorescently labeled glycoconjugates. It is filed as cell-based, human. To be noted: 200 micromolar Fuc or 25 micromolar ManNAc analogs, 3 days; probe 6 or 7. Here is the method: (§1) One exemplary implementation of the disclosure provides a method to visualize the localization of glycoconjugates using alkynyl sugar tagging. To visualize the localization of glycoconjugates tagged with alkynyl sugars, adherent cells are grown on slides in the presence or absence of derivatized alkynyl sugars. After a 3-day-incubation, cells attached to the slides are fixed, permeabilized, and labeled with either biotin probe 6 or fluorogenic probe 7 for fluorescent signal analysis with confocal microscopy (FIGS. 4, 5, 10A, 10B and 11). For comparison, samples are also stained with wheat germ agglutinin (WGA, a Golgi marker) and Hoechst 33342 (marker for cell nuclei).
(§2) Human hepatocellular carcinoma cells (Hep3B) or breast adenocarcinoma cells (MCF-7) were seeded onto six-well plates (3×10^5/2 ml per well) containing glass coverslips, and were cultivated in 10% FCS/DMEM or 10% FCS/RPMI medium 1640. […]

The next assay concerns MCF-7 cells. Described as above. Type of assay: cell-based, human. Particulars: 200 micromolar Fuc or 25 micromolar ManNAc analogs, 3 days; probe 6 or 7. The protocol: as §1, §2
The next assay deals with H. pylori. Briefly: Labeling and detection of fucosylated glycoconjugates in H. pylori (immunoprecipitation, SDS-PAGE, protein blot). Type of assay: cell-based, Helicobacter pylori. The protocol:
Representative H. pylori strains isolated from human gastric biopsy specimens, including gastritis (HS), duodenal ulcer (HD), gastric ulcer (HU) and gastric cancer (HC), were subjected to MOE: all the strains were grown on CDC agar plate supplemented with 200 micromolar derivatized alkynyl Fuc 1 for two days under micro-aerobic atmosphere (5% O2, 15% CO2, 80% N2). […] Immunoprecipitates were then analyzed by SDS-PAGE and stained for visualization. […]
Protein extracts were prepared in lysis buffer (1% NP-40, 150 mM NaCl, 100 mM sodium phosphate pH 7.5, 1×EDTA-free protease inhibitor cocktail) and labeled with biotin probe 6 (protein 1 mg/ml with 0.1 mM azido biotin 6/0.1 mM Tris-thiazoleamine catalyst/1 mM CuSO4/2 mM sodium ascorbate in lysis buffer) via cycloaddition at room temperature for 1 h. […] Immunoprecipitates were then analyzed by SDS-PAGE and stained for visualization. […]
Detection of CagA on protein blots: Protein extracted from control or alkynyl Fuc 1 analog-treated HC samples were subjected to cycloaddition labeling to label with biotin probe (protein 1 mg/ml with 0.1 mM azido biotin 6/0.1 mM Tris-thiazoleamine catalyst/1 mM CuSO4/2 mM sodium ascorbate in lysis buffer), followed by immunoprecipitation with anti-CagA antibody (Santa Cruz). The derivatized alkynyl Fuc tags/biotin labeling on CagA protein were detected by peroxidase-conjugated streptavidin on protein blot.

For the substance “1,2,3,4-tetraacetyl alkynyl fucose [alkynyl Fuc 1]”, the “labeling signal by confocal microscopy” value in the assay on Hep3B cells and with MCF-7 cells was “strong punctate-labeling signal” throughout. In addition, the “tagged fucosyl proteins isolated by anti-biotin immunoprecipitation” value in the assay with H. pylori (200 micromolar, two days, strains HS, HD, HU, HC) is given as “several proteins were detected”. For the same substance, the “biotinylated Fuc tags on CagA protein (protein blot)” value in the assay on H. pylori (HC strain, anti-CagA immunoprecipitation) is on record as “specific signal is only detected in MOE-tagged HC strain”.
